Measured values as given in patent publication US20060019907A1, “Guggulsterone: an inhibitor of nuclear factor - kappaB and IkappaBalpha kinase activation and uses thereof” (Research Development Foundation, priority 2004, published 2006).

How the values were obtained:
[1] = tested on: KBM-5 cells; test: Live and Dead (calcein AM) assay, TNF plus guggulsterone; format: cell-based, human; details: TNF in combination with guggulsterone, 24 hours
From the text: Live and Dead Assay: To measure apoptosis, the Live and Dead assay (Molecular Probes) was used, which determines intracellular esterase activity and plasma membrane integrity. This assay employs calcein, a polyanionic dye, which is retained within the live cells and provides green fluorescence. It also employs the ethidium […] dye (red fluorescence), which can enter the cells only through damaged membranes and bind to nucleic acids but is excluded by the intact plasma membrane of live cells. Briefly, 1×10^5 cells are incubated with 10 μM guggulsterone for 24 h and then treated with 1 nM TNF for 16 hours at 37° C. Cells are stained with the Live and Dead reagent (5 μM ethidium homodimer, 5 μM calcein-AM) and then incubated at 37° C. for 30 min. Cells were analyzed under a fluorescence microscope (Labophot-2).

[2] = tested on: U937 cells; test: Cell cycle, flow cytometric analysis; format: cell-based, human; details: 10 μM, propidium iodide flow cytometry
Protocol: Flow cytometric analysis. To determine the effect of guggulsterone on the cell cycle, U937 cells were treated for different times, washed, and fixed with 70% ethanol. After an overnight incubation at −20° C., cells were washed with PBS, and then suspended in staining buffer (Propidium iodide, 10 μg/ml; Tween-20, 0.5%; RNase, 0.1% in PBS). The cells were analyzed using a FACS Vantage flow cytometer that uses CellQuest acquisition and analysis programs (Becton Dickinson, San Jose, Calif.). Gating was set to exclude cell debris, cell doublets, and cell clumps.

[3] = tested on: MKK4 mutants and wild type cells; test: Cytotoxicity (MTT uptake) in MKK4 mutants and wild type cells; format: cell-based; details: 72 h
Protocol: Cytotoxicity assay. The cytotoxic effects of guggulsterone was determined by the MTT uptake method. Briefly, 5000 cells were incubated with guggulsterone in triplicate in a 96-well plate at 37° C. MTT solution was then added to each well. After a 2-h incubation at 37° C., extraction buffer (20% SDS, 50% dimethylformamide) was added, the cells were incubated overnight at 37° C., and the OD was then measured at 570 nm using a 96-well multiscanner (Dynex Technologies, MRX Revelation, Chantilly, Va.).

[4] = tested on: JNK; test: JNK kinase assay; format: cell-based, human; details: U937; 10 μM
Protocol: JNK kinase assay. To determine the effect of guggulsterone on the kinase activity of JNK, JNK complex from whole-cell extracts was precipitated with antibody against JNK1, followed by treatment with protein A/G-Sepharose beads (Pierce, Rockford, Ill.). After 2 h of incubation, the beads were washed with lysis buffer and then assayed in kinase assay mixture containing 50 mM HEPES (pH 7.4), 20 mM MgCl2, 2 mM dithiothreitol, 20 μCi of [γ-^32P]ATP, 10 μM unlabeled ATP, and 2 μg of substrate GST-c-Jun (1-79). The immunocomplex was incubated at 30° C. for 30 min and then boiled with SDS sample buffer for 5 min. Finally, the protein was resolved on 10% SDS-PAGE, the gel was dried, and the radioactive bands were visualized using the PhosphorImager. To determine the total amount of JNK1 in each sample, whole-cell extracts were subjected to Western blot analysis using anti-JNK1 antibody.

[5] = tested on: Akt; test: TNF-induced Akt activation, Western blot with phospho-specific anti-Akt; format: cell-based; details: pretreatment with guggulsterone, TNF (1 nM)
From the text: Guggulsterone Suppressed TNF-induced Activation of Akt: The results till now indicate that guggulsterone inhibits TNF-induced NF-κB activation through inhibition of IKK activation. It is possible that this inhibition is due to inhibition of an upstream kinase. Previous studies have reported that Akt can activate IKK. Thus it is possible that guggulsterone suppresses TNF-induced Akt activation. To determine the effect of guggulsterone on the activation of Akt induced by TNF, the cells were treated with guggulsterone, and then exposed to TNF (1 nM) for different times. Thereafter whole-cell extracts were prepared and Western blot analysis using phospho-specific anti-Akt antibody was performed.

[6] = tested on: KBM-5 cells; test: Cytotoxicity (MTT) assay with TNF and chemotherapeutic drugs; format: cell-based, human; details: 50 μM guggulsterone, 72 hours
Protocol: Cytotoxicity Assay: Cytotoxicity was assayed by the modified tetrazolium salt 3-(4-5-dimethylthiozol-2-yl)2-5-diphenyl-tetrazolium bromide (MTT) assay (Bharti et al., 2003). Briefly, cells (5000 cells/well) were incubated in the presence or absence of the indicated test sample in a final volume of 0.1 ml for 72 hours at 37° C. Thereafter, 0.025 ml of MTT solution (5 mg/ml in PBS) was added to each well. After a 2 hour incubation at 37° C., 0.1 ml of the extraction buffer (20% SDS, 50% dimethylformamide) was added. After an overnight incubation at 37° C., the optical densities at 570 nm were measured using a 96-well multiscanner autoreader (Dynatech MR5000), with the extraction buffer as blank. The percent cytotoxicity was determined as follows: (1−(A570 of test sample)/(A570 of control sample)×100%.

[7] = tested on: NF-κB; test: Constitutively active NF-κB by EMSA in U266 and MDA 1986 tumor cells; format: cell-based, human; details: 50 μM, 4 hours
Protocol: NF-κB Activation: To determine NF-κB activation, EMSA was carried out as previously described (Chaturvedi et al., 2000). Briefly, nuclear extracts prepared from cells (2×10^6/ml) treated with TNF were incubated with ^32P-end-labeled 45-mer double-stranded NF-κB oligonucleotide (8 μg of protein with […] of DNA) from the human immunodeficiency virus long terminal repeat, 5′-[…] GGCGTGG-3′ (SEQ ID NO:1) (boldface indicates NF-κB binding sites), for 15 min at 37° C. The DNA-protein complex formed was separated from free oligonucleotide on 6.6% native polyacrylamide gels. A double-stranded mutated oligonucleotide, 5′-[…]-3′ (SEQ ID NO:2), was used to examine the specificity of binding of NF-κB to the DNA. The specificity of binding was also examined by competition with the unlabeled oligonucleotide. For supershift assays, nuclear extracts prepared from TNF-treated cells were incubated with antibodies against either the p50 or the p65 subunit of NF-κB for 30 min at room temperature before the complex was analyzed by EMSA. The dried gels were visualized, and radioactive bands were quantitated using a PHOSPHORIMAGER™ (Molecular Dynamics, Sunnyvale, Calif.) using IMAGEQUANT™ software.

[8] = tested on: NF-κB; test: RANKL-induced NF-κB activation by EMSA in RAW 264.7 cells; format: cell-based, mouse
[9] = tested on: bile salt export pump; details: Cui et al., 2003; cited from earlier work

Question: Which results are given for `CC=C1C(=O)C[C@H]2[C@@H]3CCC4=CC(=O)CC[C@]4(C)[C@H]3CC[C@]12C` [guggulsterone, 4,17(20)-pregnadiene-3,16-dione]?
Answer: TNF-induced apoptosis, calcein AM-based live/dead assay [1]: TNF-induced apoptosis was significantly enhanced; cell cycle arrest [2]: arrested the cell cycle in S-phase; guggulsterone induced cytotoxicity, dependence on MKK4 [3]: MKK4 is required for guggulsterone induced cytotoxicity; JNK activation [4]: activation of JNK; TNF-induced Akt activation [5]: completely suppressed the activation; cytotoxic effects of TNF, paclitaxel and doxorubicin in combination with guggulsterone [6]: enhanced the cytotoxic effects of TNF, paclitaxel and doxorubicin; constitutively active NF-κB in U266 and MDA 1986 cells [7]: completely inhibited this constitutively active NF-κB; concentration of complete inhibition of RANKL-induced NF-κB activation ([8]; RAW 264.7, 10 nM RANKL): 50 µM; inhibition of RANKL-induced NF-κB, dose dependence ([8]; RAW 264.7, 10 nM RANKL): increased with dose; RANKL-induced NF-κB activation (EMSA) ([8]; RAW 264.7, 50 μM, 10 nM RANKL): completely abrogated the RANKL-induced NF-κB activation; RANKL-induced NF-κB activation (Example 1) ([8]; osteoclast precursor cells): inhibits RANKL-induced NF-κB activation; transcription of the bile salt export pump [9]: enhances transcription of the bile salt export pump
